One may read the kinetic solubility as solubility judged after dilution from a stock solution rather than from solid.

In brackets after ≈: the same amount, converted by molar mass.

The conditions of this series: buffer; pH 7.4; 200.0 µM.
For `CCOC(=O)C1CCN(C(=O)CCC2CCCC2)CC1`, the solubility (kinetic) amounted to 0.0376 mg/mL (≈ 134 µM). In turn, `Cc1c(C(=O)Nc2nccs2)oc2ccc(F)cc12` had a kinetic solubility of 0.0031 mg/mL (≈ 11.2 µM). This solubility kinetic is about 12-fold lower than that of the compound before. The same measure for `O=C(Nc1cc(Cl)ccc1N1CCOCC1)c1ccncc1`: above 0.0477 mg/mL. The same measure for `Cn1c(=O)cc(N)n(-c2ccccc2)c1=O`: above 0.0326 mg/mL; for `COc1ccccc1Oc1ncnc2sccc12`: above 0.0387 mg/mL. On to `COCCOC(=O)c1[nH]c2c(c1C)C(=O)CC(c1ccc(OC)cc1)C2` (configuration not stated), for which the solubility (kinetic) is 0.0016 mg/mL (≈ 4.48 µM). The same measure for `O=C(COc1ccc(-c2ccccc2)cc1)Nc1cccnc1`: 0.0042 mg/mL (≈ 13.8 µM). In turn, `COc1ccc(Nc2nnc(SC(C)C(=O)NC3CC3)s2)cc1` (configuration not stated) gave a kinetic solubility above 0.0526 mg/mL. `O=C(CNC(=O)c1ccc(Cl)cc1)OCN1C(=O)c2ccccc2C1=O` showed a kinetic solubility of 0.0077 mg/mL (≈ 20.7 µM). The same measure for `Clc1ccc(C2CSc3c4ncnc-4ncn32)cc1` (configuration not stated): 0.0339 mg/mL (≈ 117 µM).

`CCN1CCCC1CNC(=O)C(=O)NCc1ccccc1` (configuration not stated) yielded a solubility (kinetic) above 0.0434 mg/mL. The same measure for `N#Cc1ccccc1S(=O)(=O)N1CCN(C(=O)C2CCCCC2)CC1`: above 0.0542 mg/mL. The same measure for `CN(CCO)C(=O)C(c1ccccc1)c1ccccc1`: 0.0362 mg/mL (≈ 134 µM). Consider `CCN(CC)C1CCN(c2nc3nonc3nc2NCCOC)C1` (configuration not stated), for which the solubility (kinetic) came to 0.0468 mg/mL (≈ 140 µM). This solubility kinetic and that of the compound before are within 1.5-fold of each other.

The compound `CCCCOc1nc(N2CCOCC2)nc(C)c1[N+](=O)[O-]` had a kinetic solubility of 0.0015 mg/mL (≈ 5.06 µM).

`Nc1nnc(SCc2c(F)cccc2Cl)s1`: the solubility (kinetic) is above 0.0414 mg/mL. Take `Cc1ccc(CNC(=O)Nc2ccc(F)cc2F)n1C`: the solubility (kinetic) is above 0.0419 mg/mL. In turn, `Cc1ccc([N+](=O)[O-])c(OCCn2cnc3ccccc32)c1` had a kinetic solubility of 0.0116 mg/mL (≈ 39 µM).

`O=c1[nH]c(O)c(C=Nc2ccc(Cl)c(C(F)(F)F)c2)c(=O)[nH]1` displayed a kinetic solubility of 0.0017 mg/mL (≈ 5.1 µM). Against the preceding compound, the solubility kinetic is about 6.8-fold lower. The same measure for `Cc1nc(C(F)(F)F)ccc1C(=O)NN1CCOCC1`: above 0.0434 mg/mL; for `CNS(=O)(=O)c1cccc(C(=O)OCC(=O)c2ccc3[nH]c(=O)[nH]c3c2)c1`: above 0.0584 mg/mL.

For the compound `CCOc1ccc(N2C(=O)/C(=C/c3ccccn3)SC2=S)cc1`, the solubility (kinetic) is below 0.0004 mg/mL. The same measure for `O=C(Cc1cccs1)NCCc1ccc(Cl)cc1`: 0.0405 mg/mL (≈ 145 µM).

As for `CC(NC(=O)C12CC3CC(CC(C3)C1)C2)c1ccc(F)cc1` (configuration not stated), the solubility (kinetic) is 0.0014 mg/mL (≈ 4.64 µM). The same measure for `COCc1cc(C)nc(SCc2ccc(Cl)cc2)c1C#N`: 0.0008 mg/mL (≈ 2.51 µM). `COc1ccccc1CC(=O)O/N=C(\N)c1ccccn1`: the solubility (kinetic) is above 0.0428 mg/mL. To `O=C(OCC(=O)N1CCCc2ccccc21)c1cc(Cl)ccc1O` belongs 0.0034 mg/mL (≈ 9.83 µM); to `COc1cc(-c2c(C#N)c(N)nc3[nH]c(=S)[nH]c(=O)c23)ccc1O`, 0.0117 mg/mL (≈ 34.3 µM); to `COc1cc(C(=O)Oc2cccnc2)cc(OC)c1OC.Cl`, above 0.0489 mg/mL. Compound `COc1cc2c(cc1NC(=O)COCC(=O)O)oc1ccccc12` displayed a solubility (kinetic) above 0.0494 mg/mL. To `COc1ccc(Nc2nc(-c3cccnc3)cs2)c(OC)c1` belongs 0.0263 mg/mL (≈ 83.9 µM); to `O=C(Cc1ccccc1)NCC(=O)N1CCc2ccccc2C1`, above 0.0463 mg/mL. The same measure for `CCC(CC)C(=O)c1c[nH]c(C(=O)NCc2ccccc2OC)c1`: 0.0008 mg/mL (≈ 2.44 µM).

Take `Cc1ccc2nc(NC(=O)CC3Oc4ccccc4NC3=O)sc2c1` (configuration not stated): the kinetic solubility turned out to be 0.0038 mg/mL (≈ 10.8 µM). This solubility kinetic is about 4.8-fold higher than that of the compound before.

Turning to `Cc1sc2ncnc(NS(=O)(=O)c3ccc(Cl)cc3)c2c1C`, the solubility (kinetic) worked out at 0.0478 mg/mL (≈ 135 µM). The same measure for `O=C(CSc1ncccn1)NC(=O)Cc1ccccc1`: above 0.0431 mg/mL; for `CSc1ccc(CNC(C)C(O)c2ccccc2)cc1.Cl` (configuration not stated): above 0.0486 mg/mL; for `O=C(Nc1ccccc1C(F)(F)F)c1cnccn1`: 0.0215 mg/mL (≈ 80.5 µM). The same measure for `CC#CC[N+](C)(CC#CC)CC(=O)c1ccccc1.[Br-]`: 0.03 mg/mL. To `CCC(CC)C(=O)Nc1ccc(S(=O)(=O)Nc2nccs2)cc1` belongs above 0.053 mg/mL; to `C/C(N)=C(/C#N)C(=O)COC(=O)Cc1coc2cc(C)ccc12`, 0.0102 mg/mL (≈ 32.7 µM). As for `COc1ccccc1CCC(=O)OCC(=O)NCc1ccc(OC)c(OC)c1`, the kinetic solubility is above 0.0581 mg/mL. The same measure for `Cn1c(Nc2cccc(Cl)c2)nc2ccccc21`: 0.0055 mg/mL (≈ 21.3 µM); for `N#Cc1cccnc1N1CCN(C(=O)c2ccco2)CC1`: above 0.0423 mg/mL. To `O=C1Nc2ccccc2C(c2ccccc2)=NC1O` (configuration not stated) belongs above 0.0378 mg/mL; to `O=c1c2ccccc2[nH]c(=S)n1CCCn1ccnc1`, 0.0194 mg/mL (≈ 67.7 µM); to `CN(C)c1cc(-c2cccc([N+](=O)[O-])c2)oc(=O)c1Cl`, 0.0013 mg/mL (≈ 4.41 µM). To `CCN(CC(=O)NC(C)C)C(=O)c1cc(S(=O)(=O)N2CCCCC2)ccc1N1CCCCC1` belongs 0.0107 mg/mL (≈ 22.4 µM); to `CCN(CCS(=O)(=O)c1ccc(Br)cc1)Cc1nc2ccccc2c(=O)[nH]1`, 0.0093 mg/mL (≈ 20.7 µM). As for `CCCC(=O)Nc1ccc2oc(=O)ccc2c1`, the kinetic solubility was above 0.0347 mg/mL. As to `COc1cccc(NC(=O)N2CCCC(C(=O)NC3CCCCC3C)C2)c1` (configuration not stated), the solubility (kinetic) was 0.0064 mg/mL (≈ 17.1 µM). In turn, `COc1ccc(C(=O)Nc2ccc3nc(C)c(C)nc3c2)cc1` registered a solubility (kinetic) of 0.0053 mg/mL (≈ 17.2 µM).

The values are drawn from PubChem BioAssay AID1996.
